# Experimental data as given in PubChem BioAssay (NCI).
#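 Where inhibition never reached the appropriate level, the endpoint shown equals the highest concentration tested. Otherwise, values were interpolated linearly from a five-concentration, 48-hour dose response in 96-well plates. At the TGI there is no net growth.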
# Experiments:
# Assay in all cases: NCI anticancer screen, dose series, 48 h
# A498 renal = system: A498 renal
# A549 NSCLC = system: A549 NSCLC
# ACHN renal = system: ACHN renal
# BT-549 breast = system: BT-549 breast
# EKVX NSCLC = system: EKVX NSCLC
# HL-60(TB) leukemia = system: HL-60(TB) leukemia
# HOP-92 NSCLC = system: HOP-92 NSCLC
# LOX IMVI melanoma = system: LOX IMVI melanoma
# MOLT-4 leukemia = system: MOLT-4 leukemia
# OVCAR-8 ovarian = system: OVCAR-8 ovarian
# RXF 393 renal = system: RXF 393 renal
# SF-539 CNS = system: SF-539 CNS
# SK-MEL-5 melanoma = system: SK-MEL-5 melanoma
# SN12C renal = system: SN12C renal
# SNB-75 CNS = system: SNB-75 CNS
# TK-10 renal = system: TK-10 renal
# UACC-257 melanoma = system: UACC-257 melanoma
# UACC-62 melanoma = system: UACC-62 melanoma
# NCI-H23 lung = system: NCI-H23 lung
Structure (SMILES),TGI (A498 renal),TGI (A549 NSCLC),TGI (ACHN renal),TGI (BT-549 breast),TGI (EKVX NSCLC),TGI (HL-60(TB) leukemia),TGI (HOP-92 NSCLC),TGI (LOX IMVI melanoma),TGI (MOLT-4 leukemia),TGI (OVCAR-8 ovarian),TGI (RXF 393 renal),TGI (SF-539 CNS),TGI (SK-MEL-5 melanoma),TGI (SN12C renal),TGI (SNB-75 CNS),TGI (TK-10 renal),TGI (UACC-257 melanoma),TGI (UACC-62 melanoma),TGI (NCI-H23 lung)
OCC1OC(Oc2cc(O)cc(/C=C/c3ccc(O)cc3)c2)C(O)C(O)C1O (configuration not stated),> 100 µM,> 100 µM,> 100 µM,> 100 µM,> 100 µM,> 100 µM,> 100 µM,> 100 µM,> 100 µM,> 100 µM,> 100 µM,> 100 µM,> 100 µM,> 100 µM,> 100 µM,> 100 µM,> 100 µM,> 100 µM,
COc1ccc(N=Nc2ccc3oc(=O)c(C(=O)Nc4ccccc4)cc3c2)cc1,> 10 µM,> 10 µM,> 10 µM,> 10 µM,> 10 µM,> 10 µM,> 10 µM,> 10 µM,> 10 µM,> 10 µM,> 10 µM,> 10 µM,> 10 µM,> 10 µM,> 10 µM,> 10 µM,> 10 µM,> 10 µM,> 10 µM
C=C1CCC2CC1[C@@H](C(=O)c1c[nH]c3ccccc13)NC2(C)C (some centres not stated),> 37.5 µM,> 37.5 µM,> 37.5 µM,> 37.5 µM,> 37.5 µM,> 37.5 µM,31 µM,> 37.5 µM,> 37.5 µM,> 37.5 µM,> 37.5 µM,> 37.5 µM,> 37.5 µM,> 37.5 µM,> 37.5 µM,> 37.5 µM,> 37.5 µM,> 37.5 µM,> 37.5 µM
CSc1nc(-c2ccc(C)cc2)c(C#N)c(=O)[nH]1,> 100 µM,> 100 µM,> 100 µM,> 100 µM,> 100 µM,> 100 µM,> 100 µM,,> 100 µM,> 100 µM,> 100 µM,> 100 µM,> 100 µM,> 100 µM,> 100 µM,> 100 µM,> 100 µM,> 100 µM,> 100 µM
O=C(O)CCC(NC(=O)c1ccc(Nc2cnc3ccc(C(F)(F)F)cc3n2)cc1)C(=O)O (configuration not stated),> 100 µM,> 100 µM,> 100 µM,> 100 µM,> 100 µM,> 100 µM,> 100 µM,> 100 µM,> 100 µM,> 100 µM,> 100 µM,> 100 µM,> 100 µM,> 100 µM,> 100 µM,> 100 µM,> 100 µM,> 100 µM,> 100 µM
Cc1nc2ccc(F)cc2c2c1CCO2,> 100 µM,> 100 µM,> 100 µM,> 100 µM,> 100 µM,55.2 µM,> 100 µM,> 100 µM,> 100 µM,> 100 µM,> 100 µM,> 100 µM,> 100 µM,> 100 µM,> 100 µM,> 100 µM,> 100 µM,> 100 µM,> 100 µM
